Test results published in US10543212B2, “Substituted amines for treating cardiac diseases” (Cardurion Pharmaceuticals, LLC, priority 2017, dated 2020).

Each molecule was assayed against T1, Full-length, GST-tagged, human CaMKIIδ (Homo sapiens, UniProt Q13557) (assay: CaMKIIδ binding assay (TR-FRET with BODIPY-labeled probe ligand)). Details: CaMKIIδ binding assay, results of Table 2.
T1 construct: Full-Length, Glutathione-S-Transferase(GST)-Tagged, Human CaMKIIδ was purchased from Carna Biosciences; purchased Carna Biosciences 02-111
T1 sequence (Q13557 1-478 isoform Q13557-12): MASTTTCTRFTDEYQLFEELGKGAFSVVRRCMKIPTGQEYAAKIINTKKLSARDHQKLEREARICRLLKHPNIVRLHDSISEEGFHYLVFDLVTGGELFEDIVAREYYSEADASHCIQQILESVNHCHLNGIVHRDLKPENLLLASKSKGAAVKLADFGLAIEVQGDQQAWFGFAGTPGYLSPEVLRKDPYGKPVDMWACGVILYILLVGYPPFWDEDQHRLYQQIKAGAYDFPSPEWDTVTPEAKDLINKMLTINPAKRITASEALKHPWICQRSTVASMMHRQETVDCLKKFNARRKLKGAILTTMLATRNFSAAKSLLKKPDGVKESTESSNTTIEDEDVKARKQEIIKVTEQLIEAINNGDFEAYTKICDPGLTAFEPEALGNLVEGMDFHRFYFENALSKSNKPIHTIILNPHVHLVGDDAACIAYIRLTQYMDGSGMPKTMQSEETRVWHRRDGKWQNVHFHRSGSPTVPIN
Procedure, shortened: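 Compounds were tested as 4-fold, eight-point series for 1 hr at room temperature, and IC50 was obtained by logistic fitting against a 3 μM parent-compound control. Signal came from displacement of a 300 nM BODIPY ligand from 0.5 nM GST-CaMKIIδ, detected via Tb-anti-GST in calmodulin/Ca2+ (pH 7.6).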
`C[C@@H](Cn1cnnn1)Oc1cc(-c2cnc(Nc3cn(C4CCN(C5COC5)CC4)nc3C(F)(F)F)nc2)ccc1Cl` [Example 562, (S)-5-(3-((1-(1H-tetrazol-1-yl)propan-2-yl)oxy)-4-chlorophenyl)-N-(1-(1-(oxetan-3-yl)piperidin-4-yl)-3-(trifluoromethyl)-1H-pyrazol-4-yl)pyrimidin-2-amine] showed an IC50 of 10 to 100 nM. In the case of `C[C@@H](Cn1cnnn1)Oc1cc(-c2cnc(Nc3cc(N4CCC(N5CCOCC5)CC4)ccc3F)nc2)ccc1Cl` [Example 580, (S)-5-(3-((1-(1H-tetrazol-1-yl)propan-2-yl)oxy)-4-chlorophenyl)-N-(2-fluoro-5-(4-morpholinopiperidin-1-yl)phenyl)pyrimidin-2-amine], the IC50 is reported as under 10 nM. Work on `COc1cc2c(cc1Nc1ncc(-c3ccc(Cl)c(O[C@@H](C)Cn4cnnn4)c3)cn1)CN(C(=O)CN(C)C)CC2` [Example 464, (S)-1-(7-((5-(3-((1-(1H-tetrazol-1-yl)propan-2-yl)oxy)-4-chlorophenyl)pyrimidin-2-yl)amino)-6-methoxy-3,4-dihydroisoquinolin-2(1H)-yl)-2-(dimethylamino)ethan-1-one] yielded an IC50 of under 10 nM. `COc1cc2c(cc1Nc1ncc(-c3ccc(Cl)c(O[C@@H](C)Cn4cnnn4)c3)cn1)CCN(c1ccnc(C)n1)C2` [Example 505, (S)-N-(5-(3-((1-(1H-tetrazol-1-yl)propan-2-yl)oxy)-4-chlorophenyl)pyrimidin-2-yl)-7-methoxy-2-(2-methylpyrimidin-4-yl)-1,2,3,4-tetrahydroisoquinolin-6-amine] showed an IC50 of 10 to 100 nM.

Same assay, conditions: CaMKIIδ binding assay; activity class per Table 2
`CCC1(N2CC3(CC(n4cc(Nc5ncc(-c6ccc(Cl)c(O[C@@H](C)Cn7cnnn7)c6)cn5)c(C(C)C)n4)C3)C2)CCOCC1` [Example 953, (S)-5-(3-((1-(1H-tetrazol-1-yl)propan-2-yl)oxy)-4-chlorophenyl)-N-(1-(2-(4-ethyltetrahydro-2H-pyran-4-yl)-2-azaspiro[3.3]heptan-6-yl)-3-isopropyl-1H-pyrazol-4-yl)pyrimidin-2-amine] showed an IC50 of under 10 nM. `C[C@@H](COC(F)F)Oc1cc(-c2cnc(Nc3cn(C4CC5(C4)CN(C4CCOCC4)C5)nc3OCC(F)(F)F)nc2)ccc1C#N` [Example 881, (S)-2-((1-(difluoromethoxy)propan-2-yl)oxy)-4-(2-((1-(2-(tetrahydro-2H-pyran-4-yl)-2-azaspiro[3.3]heptan-6-yl)-3-(2,2,2-trifluoroethoxy)-1H-pyrazol-4-yl)amino)pyrimidin-5-yl)benzonitrile] gave an IC50 of under 10 nM. `C[C@@H](Cn1cnnn1)Oc1cc(-c2cnc(Nc3cn(CC(O)CN4CCOCC4)nc3OCC(F)(F)F)nc2)ccc1Cl` (stereo partly drawn) [Example 913, 1-(4-((5-(3-(((S)-1-(1H-tetrazol-1-yl)propan-2-yl)oxy)-4-chlorophenyl)pyrimidin-2-yl)amino)-3-(2,2,2-trifluoroethoxy)-1H-pyrazol-1-yl)-3-morpholinopropan-2-ol] gave an IC50 of under 10 nM. `CC(Cn1cnnn1)Oc1cc(-c2cnc(Nc3cn(CC4(O)CCC(N5CCOCC5)CC4)nc3OCC(F)(F)F)nc2)ccc1Cl` [Example 912, cis-1-((4-((5-(3-(((S)-1-(1H-tetrazol-1-yl)propan-2-yl)oxy)-4-chlorophenyl)pyrimidin-2-yl)amino)-3-(2,2,2-trifluoroethoxy)-1H-pyrazol-1-yl)methyl)-4-morpholinocyclohexan-1-ol] showed an IC50 of under 10 nM.

Same assay, conditions: Table 2; CaMKIIδ binding assay, activity given as class A/B/C
Molecule `C[C@@H](Cn1cnnn1)Oc1cc(-c2cnc(Nc3cn(C4CCN(C(=O)OC(C)(C)C)CC4)nc3C(F)F)nc2)ccc1Cl` [Example 766, tert-butyl (S)-4-(4-((5-(3-((1-(1H-tetrazol-1-yl)propan-2-yl)oxy)-4-chlorophenyl)pyrimidin-2-yl)amino)-3-(difluoromethyl)-1H-pyrazol-1-yl)piperidine-1-carboxylate] has an IC50 of 10 to 100 nM. `C[C@@H](Cn1cnnn1)Oc1cc(-c2cnc(Nc3cn(CCCCO)nc3OCC(F)(F)F)nc2)ccc1Cl` [Example 783, (S)-4-(4-((5-(3-((1-(1H-tetrazol-1-yl)propan-2-yl)oxy)-4-chlorophenyl)pyrimidin-2-yl)amino)-3-(2,2,2-trifluoroethoxy)-1H-pyrazol-1-yl)butan-1-ol] gave an IC50 of under 10 nM. `C[C@@H](Cn1cc(F)cn1)Oc1cc(-c2cnc(Nc3cn([C@H]4CC[C@@H](N5CCOCC5)CC4)nc3OCC(F)(F)F)nc2)ccc1C#N` [Example 829, 2-(((S)-1-(4-fluoro-1H-pyrazol-1-yl)propan-2-yl)oxy)-4-(2-((1-(cis-4-morpholinocyclohexyl)-3-(2,2,2-trifluoroethoxy)-1H-pyrazol-4-yl)amino)pyrimidin-5-yl)benzonitrile] was tested, and the IC50 was 10 to 100 nM. `C[C@@H](Cn1cnnn1)Oc1cc(-c2cnc(Nc3cn([C@H]4CC[C@H](N5CC(F)C5)CC4)nc3OC3COC3)nc2)ccc1Cl` [Example 863, 5-(3-(((S)-1-(1H-tetrazol-1-yl)propan-2-yl)oxy)-4-chlorophenyl)-N-(1-(trans-4-(3-fluoroazetidin-1-yl)cyclohexyl)-3-(oxetan-3-yloxy)-1H-pyrazol-4-yl)pyrimidin-2-amine] showed an IC50 of under 10 nM. `C[C@H](CO)n1cc(Nc2ncc(-c3ccc(Cl)c(O[C@@H](C)Cn4cnnn4)c3)cn2)c(OCC(F)(F)F)n1` [Example 787, (R)-2-(4-((5-(3-(((S)-1-(1H-tetrazol-1-yl)propan-2-yl)oxy)-4-chlorophenyl)pyrimidin-2-yl)amino)-3-(2,2,2-trifluoroethoxy)-1H-pyrazol-1-yl)propan-1-ol] gave an IC50 of under 10 nM.

Same assay, conditions: Table 2; activity class for CaMKIIδ
Molecule `CCn1cc(Nc2ncc(-c3ccc(Cl)c(O[C@@H](C)Cn4cnnn4)c3)cn2)c(C2CC2)n1` [Example 642, (S)-5-(3-((1-(1H-tetrazol-1-yl)propan-2-yl)oxy)-4-chlorophenyl)-N-(3-cyclopropyl-1-ethyl-1H-pyrazol-4-yl)pyrimidin-2-amine] has an IC50 of 10 to 100 nM. In the case of `C[C@@H](Cn1cnnn1)Oc1cc(-c2cnc(Nc3cn(C4CCC(=O)CC4)nc3C(F)(F)F)nc2)ccc1Cl` [Example 680, (S)-4-(4-((5-(3-((1-(1H-tetrazol-1-yl)propan-2-yl)oxy)-4-chlorophenyl)pyrimidin-2-yl)amino)-3-(trifluoromethyl)-1H-pyrazol-1-yl)cyclohexan-1-one], the IC50 is reported as 10 to 100 nM. `COc1nn(C2CCN(C3COC3)CC2)cc1Nc1ncc(-c2ccc(Cl)c(O[C@@H](C)Cn3cnnn3)c2)cn1` [Example 661, (S)-5-(3-((1-(1H-tetrazol-1-yl)propan-2-yl)oxy)-4-chlorophenyl)-N-(3-methoxy-1-(1-(oxetan-3-yl)piperidin-4-yl)-1H-pyrazol-4-yl)pyrimidin-2-amine] showed an IC50 of under 10 nM. With `C[C@@H](Cn1cnnn1)Oc1cc(-c2cnc(Nc3cn(C4CCCN(C5COC5)C4)nc3C(F)(F)F)nc2)ccc1Cl` (stereo partly drawn) [Example 601, 5-(3-(((S)-1-(1H-tetrazol-1-yl)propan-2-yl)oxy)-4-chlorophenyl)-N-(1-(1-(oxetan-3-yl)piperidin-3-yl)-3-(trifluoromethyl)-1H-pyrazol-4-yl)pyrimidin-2-amine] the IC50 was 10 to 100 nM. `C[C@@H](Cn1cnnn1)Oc1cc(-c2cnc(Nc3cn([C@@H]4Cc5ccccc5[C@@H]4O)nc3C(F)(F)F)nc2)ccc1Cl` [Example 721, (1S,2R)-2-(4-((5-(3-(((S)-1-(1H-tetrazol-1-yl)propan-2-yl)oxy)-4-chlorophenyl)pyrimidin-2-yl)amino)-3-(trifluoromethyl)-1H-pyrazol-1-yl)-2,3-dihydro-1H-inden-1-ol] showed an IC50 of 10 to 100 nM.
